{
  "source": "the NIST ThermoML archive (doi:10.1016/j.jct.2012.12.018)",
  "test": "xn = mol fraction of the nth substance listed",
  "conditions": "Gas, Buoyancy - hydrostatic balance with magnetic suspension - one sinker, x2 = 0.8977",
  "note": "± gives the expanded uncertainty stated by the source.",
  "data": [
    {"smiles": "N#N", "note": "[nitrogen] + C", "values": [
      {"measurement": "mass density", "setting": "170.59 K, 761.2 kPa", "result": "10.0103 ± 0.2", "unit": "kg/m3"},
      {"measurement": "mass density", "setting": "170.59 K, 1037.8 kPa", "result": "14.0966 ± 0.28", "unit": "kg/m3"},
      {"measurement": "mass density", "setting": "170.59 K, 1287.8 kPa", "result": "18.0625 ± 0.36", "unit": "kg/m3"},
      {"measurement": "mass density", "setting": "170.6 K, 455.1 kPa", "result": "5.7907 ± 0.12", "unit": "kg/m3"},
      {"measurement": "mass density", "setting": "187.47 K, 422.8 kPa", "result": "4.8286 ± 0.097", "unit": "kg/m3"},
      {"measurement": "mass density", "setting": "187.47 K, 722.4 kPa", "result": "8.4419 ± 0.17", "unit": "kg/m3"},
      {"measurement": "mass density", "setting": "187.47 K, 1064.8 kPa", "result": "12.7954 ± 0.26", "unit": "kg/m3"},
      {"measurement": "mass density", "setting": "187.47 K, 1349.6 kPa", "result": "16.6251 ± 0.33", "unit": "kg/m3"},
      {"measurement": "mass density", "setting": "217.54 K, 441.1 kPa", "result": "4.2954 ± 0.086", "unit": "kg/m3"},
      {"measurement": "mass density", "setting": "217.54 K, 1298.9 kPa", "result": "13.1778 ± 0.26", "unit": "kg/m3"},
      {"measurement": "mass density", "setting": "217.54 K, 1475.3 kPa", "result": "15.0994 ± 0.3", "unit": "kg/m3"},
      {"measurement": "mass density", "setting": "217.55 K, 724.1 kPa", "result": "7.1436 ± 0.14", "unit": "kg/m3"},
      {"measurement": "mass density", "setting": "217.55 K, 1017.9 kPa", "result": "10.1853 ± 0.2", "unit": "kg/m3"},
      {"measurement": "mass density", "setting": "240.48 K, 975.3 kPa", "result": "8.695 ± 0.17", "unit": "kg/m3"},
      {"measurement": "mass density", "setting": "240.48 K, 1256.7 kPa", "result": "11.3113 ± 0.23", "unit": "kg/m3"},
      {"measurement": "mass density", "setting": "240.48 K, 1594.5 kPa", "result": "14.5212 ± 0.29", "unit": "kg/m3"},
      {"measurement": "mass density", "setting": "240.49 K, 438.2 kPa", "result": "3.8367 ± 0.077", "unit": "kg/m3"},
      {"measurement": "mass density", "setting": "240.49 K, 715.8 kPa", "result": "6.3263 ± 0.13", "unit": "kg/m3"},
      {"measurement": "mass density", "setting": "261 K, 145.7 kPa", "result": "1.1633 ± 0.024", "unit": "kg/m3"},
      {"measurement": "mass density", "setting": "261 K, 436.6 kPa", "result": "3.5148 ± 0.07", "unit": "kg/m3"},
      {"measurement": "mass density", "setting": "261 K, 729 kPa", "result": "5.9093 ± 0.12", "unit": "kg/m3"},
      {"measurement": "mass density", "setting": "261 K, 1021.7 kPa", "result": "8.3427 ± 0.17", "unit": "kg/m3"},
      {"measurement": "mass density", "setting": "270.05 K, 133.3 kPa", "result": "1.0285 ± 0.021", "unit": "kg/m3"},
      {"measurement": "mass density", "setting": "270.05 K, 424.6 kPa", "result": "3.2976 ± 0.066", "unit": "kg/m3"},
      {"measurement": "mass density", "setting": "270.05 K, 731.4 kPa", "result": "5.7195 ± 0.11", "unit": "kg/m3"},
      {"measurement": "mass density", "setting": "270.05 K, 1025.7 kPa", "result": "8.0721 ± 0.16", "unit": "kg/m3"},
      {"measurement": "mass density", "setting": "270.05 K, 1195.4 kPa", "result": "9.445 ± 0.19", "unit": "kg/m3"}
    ]}
  ]
}
